# Test results from patent US20130317029A1 (PORTOLA PHARMACEUTICALS, INC., priority 2010, published 2013).
# How the values were obtained:
# [1] = molecular target: T1, full length active recombinant SYK enzyme (Homo sapiens, UniProt P43405); assay: Inhibition of Syk tyrosine phosphorylation activity (LANCE TR-FRET kinase assay); format: biochemical
# T1 construct: full length active recombinant SYK enzyme (Millipore, Calif.); purchased Millipore
# Outline: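 Full-length active recombinant SYK (1 nM) phosphorylated biotinylated SYK-specific peptide (550 nM) with 100 μM ATP in 50 mM Tris pH 7.5, 5 mM MgCl2, 1 mM DTT, 3% DMSO, 1 h at room temperature. EDTA quench with Eu-anti-phosphotyrosine and SA-APC, 1 h TR-FRET read; IC50 by non-linear regression.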
# [2] = test system: Src kinsase; conditions: cited from earlier work
# [3] = test system: ITAM signaling; conditions: in response to various stimuli, including FcεR1 and BCR induced Syk activation; cited from earlier work
# [4] = test system: JAK kinases; conditions: cited from earlier work
# [5] = test system: refractory NHL and chronic lymphocytic leukemia; conditions: cited from earlier work
# [6] = test system: lymphoma cell lines and primary human lymphoma samples; conditions: cited from earlier work
smiles,measurement,setting,value
"CC[C@@H](Nc1nc(Nc2ccc(-n3ccnc3)cc2)c(C(N)=O)c(=O)[nH]1)C(N)=O [Example 116, (R)-2-(1-amino-1-oxobutan-2-ylamino)-4-(4-(1H-imidazol-1-yl)phenylamino)-6-oxo-1,6-dihydropyrimidine-5-carboxamide]",IC50,[1],1 to 10 nM
"CC(C)C[C@@H](Nc1nc(Nc2ccn(C)n2)c(C(N)=O)c(=O)[nH]1)C(N)=O [Example 117, (R)-2-(1-amino-4-methyl-1-oxopentan-2-ylamino)-4-(1-methyl-1H-pyrazol-3-ylamino)-6-oxo-1,6-dihydropyrimidine-5-carboxamide]",IC50,[1],100 to 1000 nM
"CC(C)C[C@@H](Nc1nc(Nc2cccc(-n3ccnc3)c2)c(C(N)=O)c(=O)[nH]1)C(N)=O [Example 118, (R)-2-(1-amino-4-methyl-1-oxopentan-2-ylamino)-4-(3-(1H-imidazol-1-yl)phenylamino)-6-oxo-1,6-dihydropyrimidine-5-carboxamide]",IC50,[1],1 to 10 nM
"CC[C@@H](Nc1nc(Nc2cccc(-n3ccnc3)c2)c(C(N)=O)c(=O)[nH]1)C(N)=O [Example 119, (R)-2-(1-amino-1-oxobutan-2-ylamino)-4-(3-(1H-imidazol-1-yl)phenylamino)-6-oxo-1,6-dihydropyrimidine-5-carboxamide]",IC50,[1],1 to 10 nM
COc1cc(Nc2ncc(F)c(Nc3ccc4c(n3)NC(=O)C(C)(C)O4)n2)cc(OC)c1OC [Example R406],activity against Src kinase,[2],not against
same,inhibition of ITAM signaling,[3],inhibit ITAM signaling
same,activity against JAK kinases,[4],active
same,phase II clinical trial outcome,[5],favorable results
same,BCR signaling,[6]; lymphoma cell lines and primary human lymphoma samples,attenuates BCR signaling
same,apoptosis,[6]; lymphoma cell lines,resulting in apoptosis
